Data as given in PubChem BioAssay AID330 (DTP/NCI, 2004).
Values joined by “and” are separate entries in the source; they are usually repeats but may differ in a detail not shown here. Equal values may be shown once. Toxic doses and inconclusive results are not listed.

Tested on: P388 leukemia ip, CD2F1 mice, survival T/C
Experiment: NCI In Vivo Anticancer Drug Screen. Data for tumor model P388 Leukemia (intraperitoneal) in CD2F1 (CDF1) mice
Settings: endpoint: median survival time, higher = longer survival
Procedure, shortened: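 Mice carrying the transplanted tumor received test compound or vehicle. Survival was recorded in each group, and the value is the treated-group measurement divided by that of the vehicle-treated control group.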

[1] = dose: 50.0 mg/kg/injection, schedule: Q01DX005 (ip), vehicle: saline with Tween-80
[2] = dose: 100.0 mg/kg/injection, schedule: Q01DX005 (ip), vehicle: saline with Tween-80
[3] = dose: 200.0 mg/kg/injection, schedule: Q01DX005 (ip), vehicle: saline with Tween-80

CC(Cl)CN=NNc1ccc(C#N)cc1 (stereo not given)
T/C (dose: 12.5 mg/kg/injection, schedule: Q01DX009 (ip), vehicle: distilled water + Tween-80): 99 % of control
T/C (dose: 25.0 mg/kg/injection, schedule: Q01DX009 (ip), vehicle: distilled water + Tween-80): 100 % of control
T/C (dose: 50.0 mg/kg/injection, schedule: Q01DX009 (ip), vehicle: distilled water + Tween-80): 100 % of control
T/C (dose: 100.0 mg/kg/injection, schedule: Q01DX009 (ip), vehicle: distilled water + Tween-80): 104 % of control
T/C (dose: 200.0 mg/kg/injection, schedule: Q01DX009 (ip), vehicle: distilled water + Tween-80): 119 % of control

CCN(CC)CCOc1cccc2c1C(=O)c1c(O)cccc1C2=O
T/C (dose: 25.0 mg/kg/injection, schedule: Q01DX009 (ip), vehicle: saline with Tween-80): 103 % of control and 95 % of control
T/C (dose: 50.0 mg/kg/injection, schedule: Q01DX009 (ip), vehicle: saline with Tween-80): 105 % of control and 97 % of control
T/C (dose: 100.0 mg/kg/injection, schedule: Q01DX009 (ip), vehicle: saline with Tween-80): 158 % of control

CC(C)C(O)(C(=O)OCC1=CC[N+]2(C)CCC(O)C12)C(C)O (stereo not given)
T/C (dose: 25.0 mg/kg/injection, schedule: Q01DX005 (ip), vehicle: water): 103 % of control
T/C (dose: 50.0 mg/kg/injection, schedule: Q01DX005 (ip), vehicle: water): 108 % of control
T/C (dose: 100.0 mg/kg/injection, schedule: Q01DX005 (ip), vehicle: water): 103 % of control
T/C (dose: 200.0 mg/kg/injection, schedule: Q01DX005 (ip), vehicle: water): 100 % of control

NCCCC(C(=O)O)N(C(=O)OCc1ccccc1)C(=O)OCc1ccccc1 (stereo not given)
T/C [1]: 97 % of control
T/C [2]: 101 % of control
T/C [3]: 90 % of control

CN(C)C1=Nc2ccccc2NC(=O)C1
T/C (dose: 50.0 mg/kg/injection, schedule: Q01DX005 (ip), vehicle: Klucel (hydroxypropylcellulose) (HPC)): 105 % of control
T/C (dose: 100.0 mg/kg/injection, schedule: Q01DX005 (ip), vehicle: Klucel (hydroxypropylcellulose) (HPC)): 105 % of control
T/C (dose: 200.0 mg/kg/injection, schedule: Q01DX005 (ip), vehicle: Klucel (hydroxypropylcellulose) (HPC)): 105 % of control

CSC1=NC=C(C#N)C2=NC(c3ccccc3)NN12 (stereo not given)
T/C [1]: 98 % of control
T/C [2]: 97 % of control
T/C [3]: 100 % of control

Nc1ncnc2c(C3OC(CO)C(O)C3O)[nH]nc12 (stereo not given)
T/C (dose: 1.25 mg/kg/injection, schedule: Q01DX009 (ip), vehicle: saline): 109 % of control
T/C (dose: 2.5 mg/kg/injection, schedule: Q01DX009 (ip), vehicle: saline): 109 % of control
T/C (dose: 5.0 mg/kg/injection, schedule: Q01DX009 (ip), vehicle: saline): 118 % of control
T/C (dose: 5.56 mg/kg/injection, schedule: Q01DX009 (ip), vehicle: saline): 109 % of control
T/C (dose: 6.25 mg/kg/injection, schedule: Q01DX009 (ip), vehicle: saline sonified): 104 % of control
T/C (dose: 8.33 mg/kg/injection, schedule: Q01DX009 (ip), vehicle: saline): 90 % of control
T/C (dose: 12.0 mg/kg/injection, schedule: Q01DX009 (ip), vehicle: saline sonified): 105 % of control
T/C (dose: 12.5 mg/kg/injection, schedule: Q01DX009 (ip), vehicle: saline): 122 % of control
T/C (dose: 18.7 mg/kg/injection, schedule: Q01DX009 (ip), vehicle: saline): 90 % of control

CCN=c1cc2oc3cc(NCC)c(C)cc3c(-c3ccccc3C(=O)OCC)c-2cc1C
T/C (dose: 0.4 mg/kg/injection, schedule: Q01DX005 (ip), vehicle: saline with Tween-80): 110 % of control
T/C (dose: 0.8 mg/kg/injection, schedule: Q01DX005 (ip), vehicle: saline with Tween-80): 116 % of control
T/C (dose: 1.6 mg/kg/injection, schedule: Q01DX005 (ip), vehicle: saline with Tween-80): 119 % of control

O=C(O)CNO
T/C (dose: 50.0 mg/kg/injection, schedule: Q01DX009 (ip), vehicle: Klucel (hydroxypropylcellulose) (HPC)): 101 % of control
T/C (dose: 100.0 mg/kg/injection, schedule: Q01DX009 (ip), vehicle: Klucel (hydroxypropylcellulose) (HPC)): 105 % of control
T/C (dose: 200.0 mg/kg/injection, schedule: Q01DX009 (ip), vehicle: Klucel (hydroxypropylcellulose) (HPC)): 104 % of control
T/C (dose: 400.0 mg/kg/injection, schedule: Q01DX009 (ip), vehicle: Klucel (hydroxypropylcellulose) (HPC)): 110 % of control

COc1ccc(Br)cc1C1SCC(=O)N1c1nncs1 (stereo not given)
T/C (dose: 60.0 mg/kg/injection, schedule: Q01DX005 (ip), vehicle: Klucel (hydroxypropylcellulose) (HPC)): 101 % of control
T/C (dose: 120.0 mg/kg/injection, schedule: Q01DX005 (ip), vehicle: Klucel (hydroxypropylcellulose) (HPC)): 101 % of control
T/C (dose: 240.0 mg/kg/injection, schedule: Q01DX005 (ip), vehicle: Klucel (hydroxypropylcellulose) (HPC)): 93 % of control
